Assay results from patent publication US20090029979A1, “5-HTX MODULATORS” (BIO-MEDISINSK INNOVASJON AS, priority 2005, published 2009).
Where a name gives a salt, the structure may show the parent alone.

Target: T1, human 5-HT2A receptor (Homo sapiens, UniProt P28223)
T1 construct: expressed in transfected cells; host or cells: HEK293, transient transfection
Experiment: Radioligand binding assay with [3H]ketanserin, membranes of HEK293 cells transiently transfected with human 5-HT2A receptor
Conditions: 5-HT2A ligands, values are pKd ± half-range, read-out: Binding affinity (pKd value) (pKd ± SEM) (converted)
Description: Binding assays were performed in 96-well, round-bottom microtiter plates with total reaction volumes of 50-200 μl, containing the indicated concentration of [^3H]GR113808 with or without competing unlabelled ligand in a binding buffer containing 50 mM Tris-HCl (pH 7.5 at RT), 1 mM EDTA, 5 mM EGTA, 2 mM MgCl2, 1 mM ascorbate, 0.1% BSA and 100 μM GTP. The plates were incubated at 23° C. for 60 min and harvested onto UniFilter™-96 GF/C™ (Packard Instrument Co., Meriden, Conn., USA), presoaked in 0.3% polyethyleneimine (Sigma), using a Packard FilterMate Universal Harvester with 96-well format, and washed 4-6 times with approximately 0.25 ml/well of ice-cold buffer, containing 50 mM Tris-HCl (pH 7.0 at RT) and 2 mM MgCl2. The filters were dried and counted at approximately 40% efficiency in a Top-Count liquid scintillation counter (Packard), using 20 μl per filter well of Micro-Scint liquid scintillation cocktail (Packard).
The same materials and methods described in example 83 were used for the biological testing of hydrophilic 5-HT7 and 5-HT2A ligands. Membrane preparations of HEK293 cell lines stably expressing human 5-HT7(a) receptors (Krobert et al. 2001), or HEK293 cells transiently transfected with human 5-HT2A receptor were used in the binding assays. […]

T1 sequence (P28223 whole entry): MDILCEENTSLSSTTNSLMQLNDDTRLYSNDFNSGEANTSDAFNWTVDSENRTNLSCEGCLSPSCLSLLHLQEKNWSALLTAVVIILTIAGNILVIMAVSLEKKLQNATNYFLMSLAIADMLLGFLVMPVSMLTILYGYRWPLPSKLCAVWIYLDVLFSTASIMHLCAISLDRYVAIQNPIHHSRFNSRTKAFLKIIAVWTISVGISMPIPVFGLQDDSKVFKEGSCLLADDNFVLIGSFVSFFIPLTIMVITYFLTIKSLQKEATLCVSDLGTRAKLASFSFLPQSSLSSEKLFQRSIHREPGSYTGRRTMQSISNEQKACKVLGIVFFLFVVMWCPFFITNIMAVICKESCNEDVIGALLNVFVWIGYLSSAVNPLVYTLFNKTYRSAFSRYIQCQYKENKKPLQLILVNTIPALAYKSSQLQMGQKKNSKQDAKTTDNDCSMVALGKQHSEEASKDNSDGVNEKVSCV

Row | Structure (SMILES) | Kd [µM]
1 | COc1cc(OC)c(C(=O)CCCCN2CCC3(CC2)NC(=O)NC3=O)cc1NS(=O)(=O)c1ccc(C(F)(F)F)cc1 [RS102221, 8-(5-(2,4-Dimethoxy-5-(4-trifluoromethylphenylsulphonamido)phenyl-5-oxopentyl]-1,3,8-triazaspiro[4.5]decane-2,4-dione hydrochloride, reference compound] | 4.57
2 | COC(=O)c1ccc(CN2CCC(NC(=O)C34CC5CC(CC(C5)C3)C4)C2)cc1 (centres unmarked) [Example 72] | 49
